# Measurements taken from paper PMC4529485 (Biochemistry, 2010).
# Target: myeloperoxidase (MPO) (Homo sapiens, UniProt P05164)
# Assay: flash photolysis/recombination kinetics
# Assay type: binding
# Chain of myeloperoxidase (MPO) (P05164 165-273): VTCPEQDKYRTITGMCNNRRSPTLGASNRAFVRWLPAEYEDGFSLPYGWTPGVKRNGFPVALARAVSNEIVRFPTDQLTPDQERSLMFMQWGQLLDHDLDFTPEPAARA
# Chain of myeloperoxidase (MPO) (P05164 279-745): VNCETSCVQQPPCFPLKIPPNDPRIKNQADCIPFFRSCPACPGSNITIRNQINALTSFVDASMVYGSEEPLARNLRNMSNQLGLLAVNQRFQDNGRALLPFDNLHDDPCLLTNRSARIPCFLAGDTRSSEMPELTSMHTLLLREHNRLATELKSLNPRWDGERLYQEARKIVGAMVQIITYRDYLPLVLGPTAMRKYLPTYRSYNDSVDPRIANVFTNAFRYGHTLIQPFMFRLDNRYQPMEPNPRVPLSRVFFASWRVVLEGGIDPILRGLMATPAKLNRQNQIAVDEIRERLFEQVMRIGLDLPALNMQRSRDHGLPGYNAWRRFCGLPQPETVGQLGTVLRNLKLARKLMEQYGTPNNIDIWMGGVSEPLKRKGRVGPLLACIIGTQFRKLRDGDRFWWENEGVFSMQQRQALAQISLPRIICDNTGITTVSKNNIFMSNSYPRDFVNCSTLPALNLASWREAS
compound,measurement,value
[C-]#[O+] [CO],Kd,1600 µM
